Results as given in patent US20230265116A1, “DEGRADATION OF (EGFR) BY CONJUGATION OF EGFR INHIBITORS WITH E3 LIGASE LIGAND AND METHODS OF USE” (BEIGENE, LTD., priority 2020, published 2023).

Experiments:
[1] = target: T1, EGFR L858R/T790M/C797S (BaF3-LTC cells) (Homo sapiens, UniProt P00533, C797S/L858R/T790M); test: EGFR degradation HTRF assay, BaF3-LTC cells; format: cell-based; conditions: BaF3-LTC cells; for DC50: EGFR degradation, IC50 (DC50) from curve fit, read-out: DC50(nM) BaF3-LTC; for Dmax: maximum percentage of inhibition (degradation), read-out: Dmax (%) BaF3-LTC
T1 construct: expressed in transfected cells; host or cells: BaF3
Method: (§1) BaF3 WT(wild type), BaF3-LTC(L858R/T790M/C797S) and BaF3-DTC(Del19/T790M/C797S) cells are treated with compounds diluted in 0.2% DMSO cell culture medium and incubate for 16h, 37° C., 5% CO2, H1975-#36, H1975-#28, H1975-#23 and HCC827 cells are treated with compounds diluted in 0.2% DMSO cell culture medium on day 2, incubate for 16h, 37° C., 5% CO2.the final concentriation of compounds in all assay is start with 10 uM, 5-fold dilution, total 8 doses were included.
(§2) After 16h treatment, add HTRF lysis buffer to each well; seal the plate and incubate 1 hour at room temperature on a plate shaker; Once the cells are lysed, 16 μL of cell lysate are transferred to a PE 384-well HTRF detection plate; 4 μL of pre-mixed HTRF antibodies are added to each well; Cover the plate with a plate sealer, spin 1000 rpm for 1 min, Incubate overnight at room temperature; Read on BMG PheraStar with HTRF protocol (337 nm-665 nm-620 nm).
(§3) The inhibition (degradation) percentage of the compound was calculated by the following equation: Inhibition percentage of Compound=100-100×(Signal-low control)/(High control-low control), wherein signal=each test compound group
(§4) High control=Cell group with added DMSO and without compound, indicating microplate readings without EGFR degradation;
(§5) Dmax is the maximum percentage of inhibition (degradation).
(§6) The IC50 (DC50) value of a compound can be obtained by fitting the following equation
(§7) Y=Bottom+(TOP−Bottom)/(1+((IC50/X)^hillslope))
(§8) Wherein, X and Y are known values, and IC50, Hillslope, Top and Bottom are the parameters obtained by fitting with software. Y is the inhibition percentage (calculated from the equation), X is the concentration of the compound; IC50 is the concentration of the compound when the 50% inhibition is reached. The smaller the IC50 value is, the stronger the inhibitory ability of the compound is. Vice versa, the higher the IC50 value is, the weaker the inhibitory ability of the compound is; Hillslope represents the slope of the fitted curve, generally around 1*; Bottom represents the minimum value of the curve obtained by data fitting, which is generally 0%±20%; Top represents the maximum value of the curve obtained by data fitting, which is generally 100%±20%. The experimental data were fitted by calculating and analyzing with Dotmatics data analysis software.

[2] = test system: EGFR Del19/T790M/C797S (H1975-clone #28); test: EGFR degradation HTRF assay, H1975-clone #28 DTC cells; format: cell-based; conditions: H1975 # 28 DTC cells; for DC50: EGFR degradation, IC50 (DC50) from curve fit, read-out: DC50(nM) H1975 # 28 DTC; for Dmax (%) H1975 # 28 DTC: maximum percentage of inhibition (degradation)
Method: H1975-clone #28(Del19/T790M/C797S) and H1975-clone #23(Del19/C797S). EGFR-Del19/T790M/C797S and EGFR-Del19/C797S were stably expressed in H1975 cell lines by lentivirus-mediated over-expression, respectively. The EGFR over-expressed cells then underwent gene knockout, in which the EGFR targeting sgRNA was designed to only target the endogenous EGFR copies and preserve the exogenous EGFR copies. Followed by the gene knockout, the edited H1975 cells were seeded in 96 well plates at the concentration of 1 cell/well, cultured for about 2 weeks to allow single clones formation. The formed clones were screened by DNA sequencing and whole exon sequencing analysis for the desired edition. H1975-clone #28 and H1975-clone #23 were finally confirmed as homozygous Del19/T790M/C797S EGFR and Del19/C797S EGFR clones, respectively.
as §1, §2, §3, §4, §5, §6, §7, §8

T1 sequence (P00533 25-1210 T790M/C797S/L858R): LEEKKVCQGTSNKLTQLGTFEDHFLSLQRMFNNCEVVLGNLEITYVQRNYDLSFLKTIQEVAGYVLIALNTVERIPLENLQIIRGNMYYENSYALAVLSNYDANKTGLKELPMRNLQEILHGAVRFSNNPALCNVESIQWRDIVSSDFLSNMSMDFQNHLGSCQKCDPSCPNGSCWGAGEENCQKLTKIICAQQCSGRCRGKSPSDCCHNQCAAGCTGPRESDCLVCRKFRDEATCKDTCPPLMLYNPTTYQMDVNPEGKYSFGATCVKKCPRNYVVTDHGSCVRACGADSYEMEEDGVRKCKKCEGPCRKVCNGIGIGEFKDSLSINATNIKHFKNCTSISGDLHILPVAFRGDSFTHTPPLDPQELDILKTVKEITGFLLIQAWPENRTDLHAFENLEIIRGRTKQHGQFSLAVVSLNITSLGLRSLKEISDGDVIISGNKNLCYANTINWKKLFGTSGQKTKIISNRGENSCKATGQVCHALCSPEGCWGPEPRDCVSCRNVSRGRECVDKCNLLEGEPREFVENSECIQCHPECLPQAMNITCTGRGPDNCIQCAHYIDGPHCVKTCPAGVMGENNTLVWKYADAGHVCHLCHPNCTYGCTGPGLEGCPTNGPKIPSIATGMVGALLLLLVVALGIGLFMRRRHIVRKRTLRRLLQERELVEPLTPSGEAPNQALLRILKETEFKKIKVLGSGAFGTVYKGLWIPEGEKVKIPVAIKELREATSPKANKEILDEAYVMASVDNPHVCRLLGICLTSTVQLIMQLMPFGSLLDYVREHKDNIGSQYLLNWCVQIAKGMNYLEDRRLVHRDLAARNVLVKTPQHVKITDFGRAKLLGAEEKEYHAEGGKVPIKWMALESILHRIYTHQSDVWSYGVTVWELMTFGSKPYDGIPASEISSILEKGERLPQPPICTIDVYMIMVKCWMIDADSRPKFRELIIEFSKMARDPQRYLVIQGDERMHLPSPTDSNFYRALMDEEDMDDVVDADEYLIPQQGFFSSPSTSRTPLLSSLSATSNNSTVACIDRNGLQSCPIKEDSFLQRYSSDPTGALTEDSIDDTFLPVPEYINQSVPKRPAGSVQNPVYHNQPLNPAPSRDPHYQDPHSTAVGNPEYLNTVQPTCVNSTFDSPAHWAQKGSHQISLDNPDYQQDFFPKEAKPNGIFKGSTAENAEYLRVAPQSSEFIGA

| SMILES | DC50 [1] [nM] | DC50 [2] [nM] | Dmax [1] [%] | Dmax (%) H1975 # 28 DTC [2] [%] |
| --- | --- | --- | --- | --- |
| [2H]C1([2H])CC([2H])(c2c(F)cc(CCN3CCN(C4CCN(c5cc(OCC)c(Nc6ncc(Br)c(Nc7ccc8nc(C)ccc8c7P(C)(C)=O)n6)cc5CC)CC4)CC3)cc2F)C(=O)NC1=O (stereo not drawn) [Example 570, 3-(4-(2-(4-(1-(4-((5-bromo-4-((5-(dimethylphosphoryl)-2-methylquinolin-6-yl)amino)pyrimidin-2-yl)amino)-5-ethoxy-2-ethylphenyl)piperidin-4-yl)piperazin-1-yl)ethyl)-2,6-difluorophenyl)piperidine-2,6-dione-3,5,5-d3] | 20.5 | 3.03 | – | 76.54 |
| CCOc1cc(N2CCC(N3CCN(C(=O)[C@H]4CN(c5cc(F)c([C@H]6CCC(=O)NC6=O)c(F)c5)CC4(C)C)CC3)CC2)c(C)cc1Nc1ncc(Br)c(Nc2ccc3nc(C)ccc3c2P(C)(C)=O)n1 [Example 727, (R)-3-(4-((R)-4-(4-(1-(4-((5-bromo-4-((5-(dimethylphosphoryl)-2-methylquinolin-6-yl)amino)pyrimidin-2-yl)amino)-5-ethoxy-2-methylphenyl)piperidin-4-yl)piperazine-1-carbonyl)-3,3-dimethylpyrrolidin-1-yl)-2,6-difluorophenyl)piperidine-2,6-dione] | 8.61 | 4.29 | – | 77.39 |
| CCOc1cc(N2CCC(N3CCN(CCc4cc5oc(=O)n(C6CCC(=O)NC6=O)c5cc4C)CC3)CC2)c(CC)cc1Nc1ncc(Br)c(Nc2ccc3c(=O)n(CC)ncc3c2P(C)(C)=O)n1 (stereo not drawn) [Example 554, 3-(6-(2-(4-(1-(4-((5-bromo-4-((5-(dimethylphosphoryl)-2-ethyl-1-oxo-1,2-dihydrophthalazin-6-yl)amino)pyrimidin-2-yl)amino)-5-ethoxy-2-ethylphenyl)piperidin-4-yl)piperazin-1-yl)ethyl)-5-methyl-2-oxobenzo[d]oxazol-3(2H)-yl)piperidine-2,6-dione] | 2.49 | 0.662 | 91.9 | 67.4 |
| CCc1ccc2c(P(C)(C)=O)c(Nc3nc(Nc4cc(C)c(N5CCC(N6CCN(CCc7ccc8c(c7)oc(=O)n8C7CCC(=O)NC7=O)CC6)CC5)cc4OC4CC4)ncc3Br)ccc2n1 (stereo not drawn) [Example 568, 3-(6-(2-(4-(1-(4-((5-bromo-4-((5-(dimethylphosphoryl)-2-ethylquinolin-6-yl)amino)pyrimidin-2-yl)amino)-5-cyclopropoxy-2-methylphenyl)piperidin-4-yl)piperazin-1-yl)ethyl)-2-oxobenzo[d]oxazol-3(2H)-yl)piperidine-2,6-dione] | 10.4 | 2.38 | 87 | 91.62 |
| CCOc1cc(N2CCC(N3CCN(C(=O)[C@@H]4CCN(c5cc(F)c([C@H]6CCC(=O)NC6=O)c(F)c5)C4)CC3)CC2)c(C)cc1Nc1ncc(Br)c(Nc2ccc3c(=O)n(C)ncc3c2P(C)(C)=O)n1 [Example 529, (R)-3-(4-((R)-3-(4-(1-(4-((5-bromo-4-((5-(dimethylphosphoryl)-2-methyl-1-oxo-1,2-dihydrophthalazin-6-yl)amino)pyrimidin-2-yl)amino)-5-ethoxy-2-methylphenyl)piperidin-4-yl)piperazine-1-carbonyl)pyrrolidin-1-yl)-2,6-difluorophenyl)piperidine-2,6-dione] | 5.8 | 1.03 | 91.9 | 85.06 |

Continued, in another order:

| DC50 [1] [nM] | DC50 [2] [nM] | Dmax [1] [%] | SMILES | Dmax (%) H1975 # 28 DTC [2] [%] |
| --- | --- | --- | --- | --- |
| 2.32 | 0.579 | 91.5 | CCc1cc(Nc2ncc(Br)c(Nc3ccc4ncncc4c3P(C)(C)=O)n2)c(OC)cc1N1CCC(N2CCN(C(=O)[C@@H]3CCN(c4cc(F)c([C@H]5CCC(=O)NC5=O)c(F)c4)C3)CC2)CC1 [Example 668, (R)-3-(4-((R)-3-(4-(1-(4-((5-bromo-4-((5-(dimethylphosphoryl)quinazolin-6-yl)amino)pyrimidin-2-yl)amino)-2-ethyl-5-methoxyphenyl)piperidin-4-yl)piperazine-1-carbonyl)pyrrolidin-1-yl)-2,6-difluorophenyl)piperidine-2,6-dione] | 86.5 |
| 5.4 | 2.23 | 97 | CCc1cc(Nc2ncc(Br)c(Nc3ccc4nc(C)ccc4c3P(C)(C)=O)n2)c(OC)cc1N1CCC(N2CCN(C(=O)[C@@H]3CN(c4cc(F)c([C@H]5CCC(=O)NC5=O)c(F)c4)CC3(C)C)CC2)CC1 [Example 662, (R)-3-(4-((S)-4-(4-(1-(4-((5-bromo-4-((5-(dimethylphosphoryl)-2-methylquinolin-6-yl)amino)pyrimidin-2-yl)amino)-2-ethyl-5-methoxyphenyl)piperidin-4-yl)piperazine-1-carbonyl)-3,3-dimethylpyrrolidin-1-yl)-2,6-difluorophenyl)piperidine-2,6-dione] | 89.14 |
| 9.87 | 1.13 | 93.8 | CCOc1cc(N2CCC(N3CCN(CC4CN(c5cc(F)c(C6CCC(=O)NC6=O)c(F)c5)C4)CC3)CC2)c(CC)cc1Nc1ncc(Br)c(Nc2ccc3c(=O)n(C)ncc3c2P(C)(C)=O)n1 (stereo not drawn) [Example 535, 3-(4-(3-((4-(1-(4-((5-bromo-4-((5-(dimethylphosphoryl)-2-methyl-1-oxo-1,2-dihydrophthalazin-6-yl)amino)pyrimidin-2-yl)amino)-5-ethoxy-2-ethylphenyl)piperidin-4-yl)piperazin-1-yl)methyl)azetidin-1-yl)-2,6-difluorophenyl)piperidine-2,6-dione] | 82.79 |
| 2.13 | 1.17 | 87.7 | CCOc1cc(N2CCC(N3CCN(CCc4ccc5c(c4)oc(=O)n5C4CCC(=O)NC4=O)CC3)CC2)c(CC)cc1Nc1ncc(Br)c(Nc2ccc3nc(C)c(F)cc3c2P(C)(C)=O)n1 (stereo not drawn) [Example 651, 3-(6-(2-(4-(1-(4-((5-bromo-4-((5-(dimethylphosphoryl)-3-fluoro-2-methylquinolin-6-yl)amino)pyrimidin-2-yl)amino)-5-ethoxy-2-ethylphenyl)piperidin-4-yl)piperazin-1-yl)ethyl)-2-oxobenzo[d]oxazol-3(2H)-yl)piperidine-2,6-dione] | 79.33 |
| 7.62 | 1.57 | 91.2 | CCOc1cc(N2CCC(N3CCN(CCc4ccc(F)c5c4n(CC)c(=O)n5C4CCC(=O)NC4=O)CC3)CC2)c(CC)cc1Nc1ncc(Br)c(Nc2cc(F)c3nc(CC)ccc3c2P(C)(C)=O)n1 (stereo not drawn) [Example 603, 3-(4-(2-(4-(1-(4-((5-bromo-4-((5-(dimethylphosphoryl)-2-ethyl-8-fluoroquinolin-6-yl)amino)pyrimidin-2-yl)amino)-5-ethoxy-2-ethylphenyl)piperidin-4-yl)piperazin-1-yl)ethyl)-3-ethyl-7-fluoro-2-oxo-2,3-dihydro-1H-benzo[d]imidazol-1-yl)piperidine-2,6-dione] | 81.2 |
| 4.47 | 0.985 | 88 | CCOc1cc(N2CCC(N3CCN(CCc4c(C)ccc5c4oc(=O)n5C4CCC(=O)NC4=O)CC3)CC2)c(CC)cc1Nc1ncc(Br)c(Nc2ccc3nc(CC)ccc3c2P(C)(C)=O)n1 (stereo not drawn) [Example 634, 3-(7-(2-(4-(1-(4-((5-bromo-4-((5-(dimethylphosphoryl)-2-ethylquinolin-6-yl)amino)pyrimidin-2-yl)amino)-5-ethoxy-2-ethylphenyl)piperidin-4-yl)piperazin-1-yl)ethyl)-6-methyl-2-oxobenzo[d]oxazol-3(2H)-yl)piperidine-2,6-dione] | 81.71 |
